{"source": "patent US20210008101A1", "about": "“METHODS AND COMPOSITIONS FOR PREVENTING, REDUCING OR ERADICATING TOXICITY CAUSED BY ACETAMINOPHEN (APAP)” (SINEW PHARMA INC., priority 2018, published 2021)", "assay_type_in_all_cases": "in vivo, Sprague-Dawley rats", "key": {"[1]": {"tested_on": "APAP-induced hepatotoxicity", "assay": "Plasma AST and ALT determination in APAP-induced toxicity animal model", "settings": "SD-rats, mean ± SD", "description": "(§1) Male Sprague-Dawley rats (weighing 220-300 g) were obtained from Professor Dr. Gonzalez of the American Country Health Research Institute (USA), introduces three male and four female mice, pairs voluntarily reproduces. All of the experiments were performed in adherence with the National Institutes of Health Guidelines for the treatment of animals. All of the mice were maintained in a room with air/humidity control and a 12-h light/dark cycle, and allowed access to food and water ad libitum throughout the experiment.\nIn the single dose study […], rats were randomly divided into 3 treatment groups: (1) a normal control group (NC, n=5), in which normal SD-rats were orally administrated with saline four times a day for multiple doses at a volume of 1 mL/kg; (2) an APAP control group (APAP, n=5), in which normal SD-rats were orally administrated with APAP in saline at dose of 1 g/kg (1,000 mg/kg) for single oral dose administration; (3) an positive control group (NAC, n=5), in which normal SD-rats were orally administrated with APAP and N-acetylcysteine (NAC) in saline at dose of 1 g/kg and 140 mg/kg for single oral dose administration; (4) the various selected antidote test groups (each groups, n=5), in which normal SD-rats were orally administered with APAP in saline at dose of 1,000 mg/kg and e various antidote agents each at dose of less than or equivalent to 200 mg per 60 kg person body weight of single oral dose administration. In addition, according to US FDA Guidance for Industry “Estimating the Maximum Safe Starting Dose in Initial Clinical Trials for Therapeutics in Adult Healthy Volunteers”, the HED (human equivalent dose) for a human adult of 60 kg can be calculated as follows: HED=animal dose (1,000 mg/kg in rats)×human body weight (60 kg)/6.2=9.677g (about 10 g).\n(§2) At the end of the treatment, the animals were sacrificed under diethyl ether anesthesia. Blood was collected from the hearts of the mice into heparin tubes, and plasma was separated by centrifugation at 13,000×g for 5 min at 4° C. Aliquots of plasma were transferred to Eppendorf tubes and stored at −80° C. until analysis.\nPlasma enzyme activities (aspartate aminotransferase [AST] and alanine aminotransferase [ALT]) were determined at 37° C. by using a Synchron LXi 725 (Beckman Instruments, Palo Alto, Calif. USA) with kits provided by the manufacturer.\n(§3) All data are represented in mean ± standard deviation (SD) and the results are calculated using ANOVA to determine the significance. Statistical Package of the Social Science program (Version 13, SPSS Inc.) is used for calculations followed by post hoc test to examine the least significant difference for multiple comparisons so as to confirm the significant differences between groups and the average difference between groups was significant p<0.05."}, "[2]": {"tested_on": "APAP-induced renal lesions", "assay": "Histological examination of kidney (H&E) in APAP-induced toxicity animal model", "settings": "H&E stained kidney section, 200×", "description": "as §1\n(§4) In the single dose study of the antidote effect of APAP metabolic enzyme inhibition on APAP-induced nephrotoxicity, rats were randomly divided into 3 treatment groups: (1) a normal control group (NC, n=5), in which normal SD-rats were orally administrated with saline four times a day for multiple doses at a volume of 1 mL/kg; (2) an APAP control group (APAP, n=5), in which normal SD-rats were orally administrated with APAP in saline at dose of 1 g/kg (1,000 mg/kg) for single oral dose administration; (3) an positive control group (NAC, n=5), in which normal SD-rats were orally administrated with APAP and N-acetylcysteine (NAC) in saline at dose of 1 g/kg and 140 mg/kg for single oral dose administration; (4) the various selected antidote test groups (each groups, n=5), in which normal SD-rats were orally administered with APAP in saline at dose of 1,000 mg/kg and e various antidote agents each at dose of less than or equivalent to 200 mg per 60 kg person body weight of single oral dose administration. In addition, according to US FDA Guidance for Industry “Estimating the Maximum Safe Starting Dose in Initial Clinical Trials for Therapeutics in Adult Healthy Volunteers”, the HED (human equivalent dose) for a human adult of 60 kg can be calculated as follows: HED=animal dose (1,000 mg/kg in rats)×human body weight (60 kg)/6.2=9.677g (about 10 g).\nThe kidney groups were fixed in 10% neutral formalin for 48-72 h. Then, tissues were trimmed and processed for a routine histopathological examination. […]"}, "[3]": {"tested_on": "APAP-induced nephrotoxicity", "assay": "Serum creatinine and BUN (kidney function) in APAP-induced toxicity animal model", "settings": "SD-rats, mean ± SD", "description": "as §1, §4, §2\nSerum creatinine and BUN levels were measured using the commercial kits (BEN) (Biochemical Enterprise, Milano, Italy) CR280 and BK151 in an automatic biochemical analyzer (ChemWell, Palm City, Fla.) at 340 nm and 510 nm, respectively.\nas §3"}, "[4]": {"tested_on": "toxicity (nephrotoxicity and hepatotoxicity) caused by APAP", "assay": "Overall antidote activity against toxicity caused by APAP (animal model)", "settings": "rats given APAP 1,000 mg/kg; summary of Table 1", "description": "as §1, §4"}, "[5]": {"settings": "APAP alone 1,000 mg/kg single oral dose (toxicity control group), n=5"}, "[6]": {"settings": "APAP alone 1,000 mg/kg single oral dose (toxicity control group), n=5, listed as AAP"}, "[7]": {"settings": "APAP 1,000 mg/kg oral plus antidote at high dose"}, "[8]": {"settings": "APAP 1,000 mg/kg oral plus antidote at low dose"}, "[9]": {"settings": "APAP 1,000 mg/kg single oral dose plus antidote single oral dose, n=5"}}, "note": "“Also recorded” adds a separate entry of the source."}
{"smiles": "CC(=O)Nc1ccc(O)cc1", "note": "[APAP, N-acetyl-para-aminophenol]", "values": [{"measurement": "ALT (hepatotoxicity)", "setting": "[1]; [5]", "value": "382.3±32.1", "unit": "IU/L"}, {"measurement": "AST (hepatotoxicity)", "setting": "[1]; [5]", "value": "591.0±59.2", "unit": "IU/L"}, {"measurement": "ALT (hepatotoxicity)", "setting": "[1]; [6]", "value": "382.3 ± 32.1", "unit": "IU/L"}, {"measurement": "AST (hepatotoxicity)", "setting": "[1]; [6]", "value": "591.0 ± 59.2", "unit": "IU/L"}, {"measurement": "Kidney histology (renal lesions), FIG. 1", "setting": "[2]; acetaminophen 1 g/kg alone", "value": "severe renal lesions including necrosis, congestion and extravasation of red blood cells"}, {"measurement": "Kidney histology (renal lesions), FIG. 1", "setting": "[2]; acetaminophen 1 g/kg alone, listed as acetaminophen", "value": "Severe necrosis, congestion and extravasation of red blood cells were seen"}, {"measurement": "BUN (nephrotoxicity)", "setting": "[3]; [5]", "value": "87.8 ± 6.6", "unit": "mg/dL"}, {"measurement": "Creatinine (nephrotoxicity)", "setting": "[3]; [5]", "value": "1.13 ± 0.17", "unit": "mg/dL"}, {"measurement": "BUN (nephrotoxicity)", "setting": "[3]; [6]", "value": "87.8 ± 6.6", "unit": "mg/dL"}, {"measurement": "Creatinine (nephrotoxicity)", "setting": "[3]; [6]", "value": "1.13 ± 0.17", "unit": "mg/dL"}]}
{"smiles": "O=c1c(O)c(-c2ccc(O)cc2)oc2cc(O)cc(O)c12", "note": "[Kaempferol]", "values": [{"measurement": "Antidote activity against toxicity (nephrotoxicity and hepatotoxicity) caused by APAP", "setting": "[4]", "value": "effective in reducing or eradicating toxicity"}, {"measurement": "ALT (hepatotoxicity)", "setting": "[1]; [7]", "value": "82.2 ± 17.6", "unit": "IU/L"}, {"measurement": "AST (hepatotoxicity)", "setting": "[1]; [7]", "value": "332.2 ± 27.1", "unit": "IU/L"}, {"measurement": "ALT (hepatotoxicity)", "setting": "[1]; [8]", "value": "179.4 ± 12.9", "unit": "IU/L"}, {"measurement": "AST (hepatotoxicity)", "setting": "[1]; [8]", "value": "395.6 ± 32.6", "unit": "IU/L"}, {"measurement": "BUN (nephrotoxicity)", "setting": "[3]; [7]", "value": "31.5 ± 7.6", "unit": "mg/dL"}, {"measurement": "Creatinine (nephrotoxicity)", "setting": "[3]; [7]", "value": "0.38 ± 0.09", "unit": "mg/dL"}, {"measurement": "BUN (nephrotoxicity)", "setting": "[3]; [8]", "value": "58.8 ± 7.0", "unit": "mg/dL"}, {"measurement": "Creatinine (nephrotoxicity)", "setting": "[3]; [8]", "value": "0.70 ± 0.09", "unit": "mg/dL"}]}
{"smiles": "O=c1cc(-c2ccc(O)c(O)c2)oc2cc(O)cc(O)c12", "note": "[Luteolin]", "values": [{"measurement": "Antidote activity against toxicity (nephrotoxicity and hepatotoxicity) caused by APAP", "setting": "[4]", "value": "effective in reducing or eradicating toxicity"}, {"measurement": "ALT (hepatotoxicity)", "setting": "[1]; [7]", "value": "57.1 ± 14.7", "unit": "IU/L"}, {"measurement": "AST (hepatotoxicity)", "setting": "[1]; [7]", "value": "223.8 ± 15.5", "unit": "IU/L"}, {"measurement": "ALT (hepatotoxicity)", "setting": "[1]; [8]", "value": "78.9 ± 15.7", "unit": "IU/L"}, {"measurement": "AST (hepatotoxicity)", "setting": "[1]; [8]", "value": "279.1 ± 35.1", "unit": "IU/L"}, {"measurement": "BUN (nephrotoxicity)", "setting": "[3]; [7]", "value": "23.7 ± 4.4", "unit": "mg/dL"}, {"measurement": "Creatinine (nephrotoxicity)", "setting": "[3]; [7]", "value": "0.25 ± 0.07", "unit": "mg/dL"}, {"measurement": "BUN (nephrotoxicity)", "setting": "[3]; [8]", "value": "31.5 ± 7.3", "unit": "mg/dL"}, {"measurement": "Creatinine (nephrotoxicity)", "setting": "[3]; [8]", "value": "0.43 ± 0.08", "unit": "mg/dL"}]}
{"smiles": "OC[C@@H](O)[C@@H](O)[C@H](O)[C@H](O)CO", "note": "[Mannitol]", "values": [{"measurement": "Antidote activity against toxicity (nephrotoxicity and hepatotoxicity) caused by APAP", "setting": "[4]", "value": "effective in reducing or eradicating toxicity"}, {"measurement": "ALT (hepatotoxicity)", "setting": "[1]; [9]", "value": "91.9 ± 8.4", "unit": "IU/L"}, {"measurement": "AST (hepatotoxicity)", "setting": "[1]; [9]", "value": "365.7 ± 35.5", "unit": "IU/L"}, {"measurement": "BUN (nephrotoxicity)", "setting": "[3]; [9]", "value": "41.0 ± 2.6", "unit": "mg/dL"}, {"measurement": "Creatinine (nephrotoxicity)", "setting": "[3]; [9]", "value": "0.56 ± 0.13", "unit": "mg/dL"}]}
{"smiles": "CC(=O)N[C@@H](CS)C(=O)O", "note": "[NAC, N-acetylcysteine, reference compound]", "values": [{"measurement": "ALT (hepatotoxicity)", "setting": "[1]; [9]", "value": "206.7 ± 20.1", "unit": "IU/L"}, {"measurement": "AST (hepatotoxicity)", "setting": "[1]; [9]", "value": "423.7 ± 38.1", "unit": "IU/L"}, {"measurement": "Kidney histology (renal lesions), FIG. 1", "setting": "[2]; acetaminophen 1 g/kg plus antidote", "value": "Mild to moderate degenerations were seen; also recorded: reduced to mild to moderate level"}, {"measurement": "BUN (nephrotoxicity)", "setting": "[3]; [9]", "value": "48.4 ± 9.8", "unit": "mg/dL"}, {"measurement": "Creatinine (nephrotoxicity)", "setting": "[3]; [9]", "value": "0.64 ± 0.05", "unit": "mg/dL"}]}
{"smiles": "O=C1C[C@@H](c2ccc(O)cc2)Oc2cc(O)cc(O)c21", "note": "[Nariagenin]", "values": [{"measurement": "Antidote activity against toxicity (nephrotoxicity and hepatotoxicity) caused by APAP", "setting": "[4]", "value": "effective in reducing or eradicating toxicity"}, {"measurement": "ALT (hepatotoxicity)", "setting": "[1]; [9]", "value": "63.1 ± 11.6", "unit": "IU/L"}, {"measurement": "AST (hepatotoxicity)", "setting": "[1]; [9]", "value": "231.1 ± 39.0", "unit": "IU/L"}, {"measurement": "BUN (nephrotoxicity)", "setting": "[3]; [9]", "value": "36.0 ± 7.8", "unit": "mg/dL"}, {"measurement": "Creatinine (nephrotoxicity)", "setting": "[3]; [9]", "value": "0.32 ± 0.03", "unit": "mg/dL"}]}
{"smiles": "OC[C@H]1O[C@H](O[C@]2(CCl)O[C@H](CCl)[C@@H](O)[C@@H]2O)[C@H](O)[C@@H](O)[C@H]1Cl", "note": "[Sucralose]", "values": [{"measurement": "Antidote activity against toxicity (nephrotoxicity and hepatotoxicity) caused by APAP", "setting": "[4]", "value": "effective in reducing or eradicating toxicity"}, {"measurement": "ALT (hepatotoxicity)", "setting": "[1]; [9]", "value": "82.8 ± 8.4", "unit": "IU/L"}, {"measurement": "AST (hepatotoxicity)", "setting": "[1]; [9]", "value": "288.4 ± 33.8", "unit": "IU/L"}, {"measurement": "BUN (nephrotoxicity)", "setting": "[3]; [9]", "value": "33.6 ± 2.7", "unit": "mg/dL"}, {"measurement": "Creatinine (nephrotoxicity)", "setting": "[3]; [9]", "value": "0.40 ± 0.15", "unit": "mg/dL"}]}
